Reference: patent US8999942B2, “Polyol modified aminoglycoside-lipid conjugates” (University of Manitoba, priority 2010, dated 2015)

Experiments:
[1] = test system: Acinetobacter baumanni (CAN-ICU 63169); assay: MIC, broth macrodilution (CLSI), A. baumannii; assay type: cell-based; conditions: A. baumannii CAN-ICU 63169
Procedure, shortened: (§1)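 Strains: ATCC references and CAN-ICU clinical isolates. Method: CLSI broth macrodilution. Output: minimum inhibitory concentration, μg/mL.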

[2] = test system: P. aeruginosa (Gent-R) CAN-ICU 62308; assay: MIC, broth macrodilution (CLSI), P. aeruginosa CAN-ICU 62308; assay type: cell-based, Pseudomonas aeruginosa
Procedure, shortened: as §1

[3] = test system: E. coli (Amikacin MIC 32) CAN-ICU 63074; assay: MIC, broth macrodilution (CLSI), E. coli CAN-ICU 63074; assay type: cell-based
Procedure, shortened: as §1

[4] = test system: Stenotrophomonas maltophilia (CAN-ICU 62585); assay: MIC, broth macrodilution (CLSI), S. maltophilia; assay type: cell-based
Procedure, shortened: as §1

[5] = test system: S. epidermidis ATCC 14990; assay: MIC, broth macrodilution (CLSI), S. epidermidis; assay type: cell-based, Staphylococcus epidermidis; conditions: footnote ATCC 1490
Procedure, shortened: as §1

S. pneumoniae ATCC 13883 = assay: MIC, broth macrodilution (CLSI), S. pneumoniae ATCC 13883; assay type: cell-based
Procedure, shortened: as §1

[6] = test system: methicillin-resistant Staphylococcus aureus (MRSA) ATCC 33592; assay: MIC, broth macrodilution (CLSI), MRSA ATCC 33592; assay type: cell-based; conditions: MRSA, methicillin-resistant S. aureus ATCC 33592
Procedure, shortened: as §1

S. aureus ATCC 29213 = assay: MIC, broth macrodilution (CLSI), S. aureus ATCC 29213; assay type: cell-based, Staphylococcus aureus
Procedure, shortened: as §1

[7] = test system: Streptococcus pneumoniae ATCC 49619; assay: MIC, broth macrodilution (CLSI), S. pneumoniae ATCC 49619; assay type: cell-based
Procedure, shortened: as §1

[8] = test system: P. aeruginosa (two strains); assay: MIC, P. aeruginosa two strains; assay type: cell-based, Pseudomonas aeruginosa
Procedure: (§2) All compounds were tested against American Type Culture Collection (ATCC) reference strains as well as clinical isolates from the Canadian Intensive Care Unit (CAN-ICU) study (Zhanel, et al., 2008). […] Antibacterial activity against Gram-positive and Gram-negative microorganisms was performed via broth macrodilution tests using CLSI methodology (Clinical and Laboratory Standards Institute, 2006). The minimum inhibitory concentration (MIC) in μg/mL of the aminoglycoside-derived amphiphilic polycarbamates and polyethers were determined using established methods (Clinical and Laboratory Standards Institute, 2006) and are shown in Tables 1 and 2, respectively.

[9] = test system: E. coli (Gentamicin-resistant) CAN-ICU 61714; assay: MIC, broth macrodilution (CLSI), gentamicin-resistant E. coli; assay type: cell-based; conditions: footnote ATCC 6174 (gentamicin resistant)
Procedure, shortened: as §1

[10] = test system: Pseudomonas aeruginosa ATCC 27853; assay: MIC, broth macrodilution (CLSI), P. aeruginosa ATCC 27853; assay type: cell-based
Procedure, shortened: as §1

E. coli ATCC 25922 = assay: MIC, broth macrodilution (CLSI), E. coli ATCC 25922; assay type: cell-based
Procedure, shortened: as §1

[11] = test system: methicillin-resistant Staphylococcus epidermidis (MRSE) CAN-ICU 61589; assay: MIC, broth macrodilution (CLSI), MRSE; assay type: cell-based; conditions: methicillin-resistant S. epidermidis, footnote (ATCC 14990)
Procedure, shortened: as §1

[12] = test system: S. aureus, MRSA, S. epidermidis and MRSE; assay: MIC, S. aureus, MRSA, S. epidermidis and MRSE; assay type: cell-based, Staphylococcus aureus, Staphylococcus epidermidis
Procedure: as §2

NCC1OC(OC2C(N)CC(N)C(OCc3ccccc3)C2OC2OC(COCc3ccccc3)C(OC3OC(CN)C(OCc4ccccc4)C(OCc4ccccc4)C3N)C2OCc2ccccc2)C(N)C(OCc2ccccc2)C1OCc1ccccc1.O=C(O)C(F)(F)F.O=C(O)C(F)(F)F.O=C(O)C(F)(F)F.O=C(O)C(F)(F)F.O=C(O)C(F)(F)F.O=C(O)C(F)(F)F (stereo not shown) [Compound 11]
Minimal Inhibitory Concentration (MIC) [1]: 16 µg/mL
Minimal Inhibitory Concentration (MIC) [2]: 64 µg/mL
Minimal Inhibitory Concentration (MIC) [3]: 4 µg/mL
Minimal Inhibitory Concentration (MIC) ([4]; S. maltophilia, footnote CAN-ICU 62584): 8 µg/mL
fold decrease in activity compared to polycarbamate analog 1 ([4]; against S. maltophilia): 2 fold
Minimal Inhibitory Concentration (MIC) [5]: 2 µg/mL
Minimal Inhibitory Concentration (MIC) (S. pneumoniae ATCC 13883): 8 µg/mL
Minimal Inhibitory Concentration (MIC) [6]: 4 µg/mL
Minimal Inhibitory Concentration (MIC) (S. aureus ATCC 29213): 4 µg/mL
Minimal Inhibitory Concentration (MIC) [7]: 16 µg/mL
MIC [8]: 32 to 64 µg/mL
Minimal Inhibitory Concentration (MIC) [9]: 16 µg/mL
Minimal Inhibitory Concentration (MIC) [10]: 32 µg/mL
Minimal Inhibitory Concentration (MIC) (E. coli ATCC 25922): 8 µg/mL
Minimal Inhibitory Concentration (MIC) [11]: 2 µg/mL
MIC [12]: 2 to 4 µg/mL
